This is an account of results in ChEMBL document CHEMBL4406853 (Eur J Med Chem, 2019).

Assay [1] addresses T1, Kappa-type opioid receptor (Homo sapiens, UniProt P41145). Description: Inhibition of kappa opioid receptor (unknown origin) by [35S]-GTPgammaS binding assay. It counts as functional. A general note: GTPγS is a poorly hydrolysed GTP analogue; its binding reports G protein activation.
The target in assay [2] is T1, Kappa-type opioid receptor. Kind of assay: Inhibition of kappa opioid receptor (unknown origin) assessed as increase in beta arrestin 2 recruitment.
The target of assay [3] is T1, Kappa-type opioid receptor. Description: Inhibition of kappa opioid receptor (unknown origin) assessed as effect on ERK2 phosphorylation relative to control.
In assay [4] the target is T1, Kappa-type opioid receptor. Description: Inhibition of kappa opioid receptor (unknown origin) assessed as effect on ERK1 phosphorylation.
Assay [5] concerns the target T1, Kappa-type opioid receptor. Kind of assay: Inhibition of kappa opioid receptor (unknown origin) assessed as effect on ERK2 phosphorylation.
Assay [6] has as its target T1, Kappa-type opioid receptor. Description: Inhibition of kappa opioid receptor (unknown origin) assessed as increase in beta arrestin 2 recruitment relative to control. (Activated receptors often draw arrestin, which recruitment assays turn into a signal.)
Assay [7] has as its target T1, Kappa-type opioid receptor. Kind of assay: Inhibition of kappa opioid receptor (unknown origin) assessed as effect on ERK1 phosphorylation relative to control.
For assay [8], the target named is T1, Kappa-type opioid receptor. Description: Agonist activity at kappa opioid receptor (unknown origin) assessed as reduction in beta arrestin recruitment relative to control. It counts as functional.
For assay [9], the target named is T1, Kappa-type opioid receptor. Description: Agonist activity at kappa opioid receptor (unknown origin) assessed as reduction in beta arrestin recruitment. The format is functional.
The species entered for another assay is Homo sapiens. Description: Selectivity ratio of Ki for mu opioid receptor (unknown origin) expressed in CHO cells to Ki for delta opioid receptor (unknown origin) expressed in CHO cells. The format is cell-based.
The target of assay [10] is T1, Kappa-type opioid receptor. Description: Partial agonist activity at kappa opioid receptor (unknown origin) expressed in CHO cells by [35S]-GTPgammaS binding assay relative to control. It counts as functional, cell-based.
A further assay addresses Mu-type opioid receptor (Homo sapiens, UniProt P35372). Kind of assay: Partial agonist activity at mu opioid receptor (unknown origin) expressed in CHO cells by [35S]-GTPgammaS binding assay. The format is functional, cell-based.
Assay [11] addresses T1, Kappa-type opioid receptor. Kind of assay: Inhibition of kappa opioid receptor (unknown origin) expressed in CHO cells by [35S]-GTPgammaS binding assay. The format is functional, cell-based.
For assay [12], the target named is T1, Kappa-type opioid receptor. Description: Partial agonist activity at kappa opioid receptor (unknown origin) expressed in CHO cells by [35S]-GTPgammaS binding assay. It counts as functional, cell-based.
Assay [13] concerns the target Mitogen-activated protein kinase 1 (Homo sapiens, UniProt P28482). Kind of assay: Inhibition of ERK2 phosphorylation (unknown origin).
A further assay deals with MAP kinase p38 (Homo sapiens, UniProt O15264+Q15759+Q16539+P53778). Description: Inhibition of p38 phosphorylation (unknown origin). It counts as protein assay.
The target in assay [14] is Mitogen-activated protein kinase 3 (Homo sapiens, UniProt P27361). Description: Inhibition of ERK1 phosphorylation (unknown origin).
Mitogen-activated protein kinase 3, sequence (P27361 whole entry): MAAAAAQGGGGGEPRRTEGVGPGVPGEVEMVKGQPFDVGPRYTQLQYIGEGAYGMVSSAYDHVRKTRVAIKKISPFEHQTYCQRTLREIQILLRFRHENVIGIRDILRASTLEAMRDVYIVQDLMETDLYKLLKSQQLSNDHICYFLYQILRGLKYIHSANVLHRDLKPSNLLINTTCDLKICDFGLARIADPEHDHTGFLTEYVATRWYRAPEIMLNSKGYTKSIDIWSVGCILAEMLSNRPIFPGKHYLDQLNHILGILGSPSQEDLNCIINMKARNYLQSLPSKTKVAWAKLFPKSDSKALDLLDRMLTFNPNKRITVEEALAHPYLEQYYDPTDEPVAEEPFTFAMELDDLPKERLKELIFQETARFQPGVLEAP

T1 sequence (P41145 whole entry): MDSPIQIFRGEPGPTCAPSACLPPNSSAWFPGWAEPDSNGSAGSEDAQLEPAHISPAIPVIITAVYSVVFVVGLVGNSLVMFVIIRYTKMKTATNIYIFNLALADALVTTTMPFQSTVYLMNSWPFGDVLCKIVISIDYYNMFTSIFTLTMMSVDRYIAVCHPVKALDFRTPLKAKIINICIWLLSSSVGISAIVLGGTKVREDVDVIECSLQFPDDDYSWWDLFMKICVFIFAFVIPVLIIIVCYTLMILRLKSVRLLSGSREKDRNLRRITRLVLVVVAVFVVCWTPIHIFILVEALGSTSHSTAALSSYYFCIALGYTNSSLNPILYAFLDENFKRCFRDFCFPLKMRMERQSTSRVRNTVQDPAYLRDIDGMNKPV
Mitogen-activated protein kinase 1, sequence (P28482 whole entry): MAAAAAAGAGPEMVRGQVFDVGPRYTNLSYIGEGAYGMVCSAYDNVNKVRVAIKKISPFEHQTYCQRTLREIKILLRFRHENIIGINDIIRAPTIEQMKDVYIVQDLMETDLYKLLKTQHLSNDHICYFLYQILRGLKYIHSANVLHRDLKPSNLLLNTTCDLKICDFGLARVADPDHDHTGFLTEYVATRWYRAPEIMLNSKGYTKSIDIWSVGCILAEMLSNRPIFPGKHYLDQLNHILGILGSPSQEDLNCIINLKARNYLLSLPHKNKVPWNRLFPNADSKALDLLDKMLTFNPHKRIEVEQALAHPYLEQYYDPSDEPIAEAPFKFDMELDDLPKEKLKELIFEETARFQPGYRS
Mu-type opioid receptor, sequence (P35372 whole entry): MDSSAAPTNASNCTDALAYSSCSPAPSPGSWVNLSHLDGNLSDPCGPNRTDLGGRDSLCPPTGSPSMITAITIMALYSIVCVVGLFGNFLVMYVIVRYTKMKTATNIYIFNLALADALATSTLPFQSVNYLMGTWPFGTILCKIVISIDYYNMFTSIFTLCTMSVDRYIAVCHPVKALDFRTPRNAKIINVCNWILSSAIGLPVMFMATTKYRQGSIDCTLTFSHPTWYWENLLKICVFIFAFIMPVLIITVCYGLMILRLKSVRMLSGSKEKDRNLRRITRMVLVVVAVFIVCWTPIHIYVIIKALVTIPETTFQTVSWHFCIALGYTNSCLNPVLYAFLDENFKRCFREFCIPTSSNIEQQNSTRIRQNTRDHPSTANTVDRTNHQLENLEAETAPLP

With `Ic1ccc(CSc2nnc(-c3ccccn3)n2Cc2ccccn2)cc1`, the EC50 (in general, the concentration giving half of the maximal effect) in [1] is 75.5 nM; in [2], 10100 nM; in assay [4], 107 nM; in assay [5], 107 nM. For the same compound, the Emax (usually the greatest response seen or fitted, relative to the assay's reference) stood at 109% in assay [3], 101% in assay [6] and 109% in assay [7].

Consider `CCC1CC2CC3c4[nH]c5ccc(O)cc5c4CCN(C2)C13` (configuration not stated), for which the Emax in assay [8] was 13%; in [10], 72%. Also, the EC50 worked out at 110 nM in assay [9], 16000 nM at Mu-type opioid receptor and 8750 nM in assay [12]. Moreover, the Ratio Ki in the assay filed under Homo sapiens is 2. Also, the Ki (as a rule, a dissociation constant, usually derived from enzyme kinetics or from competition with a known ligand) in [11] was 720 nM.

For the compound `CN(C(=O)/C=C/c1ccoc1)[C@@H]1CC[C@@]2(O)[C@H]3Cc4ccc(O)c5c4[C@@]2(CCN3CC2CC2)[C@H]1O5` [NALFURAFINE], the 50% effective concentration (EC50) in assay [13] is 0.55 nM; on MAP kinase p38 it was 5.2 nM; in assay [14], 0.55 nM.
